{"source": "ChEMBL document CHEMBL1155738", "about": "“Suppressors of cancer cell proliferation from fig (Ficus carica) resin: isolation and structure elucidation” (J Nat Prod, 2001)", "note": "Activity calls are given as the source filed them. The calls are words filed in the database; no cut-off is given here.", "data": [{"test_system": "Raji", "assay": "Cytotoxicity against human Raji cells at 25 to 50 ug/mL after 3 days by MTT assay", "type": "functional, cell-based", "values": [{"compound": "CCCCCCCCCCCCCCCC(=O)OC[C@H]1O[C@@H](O[C@H]2CC[C@@]3(C)C(=CC[C@H]4[C@@H]5CC[C@H]([C@H](C)CC[C@H](CC)C(C)C)[C@@]5(C)CC[C@@H]43)C2)[C@H](O)[C@@H](O)[C@@H]1O", "Activity": "Active"}, {"compound": "CCCCCCCCCCCCCCCCCC(=O)OC[C@H]1O[C@@H](O[C@H]2CC[C@@]3(C)C(=CC[C@H]4[C@@H]5CC[C@H]([C@H](C)CC[C@H](CC)C(C)C)[C@@]5(C)CC[C@@H]43)C2)[C@H](O)[C@@H](O)[C@@H]1O", "Activity": "Active"}, {"compound": "CCCCC/C=C/C/C=C/CCCCCCCC(=O)OC[C@H]1O[C@@H](O[C@H]2CC[C@@]3(C)C(=CC[C@H]4[C@@H]5CC[C@H]([C@H](C)CC[C@H](CC)C(C)C)[C@@]5(C)CC[C@@H]43)C2)[C@H](O)[C@@H](O)[C@@H]1O", "Activity": "Active"}]}]}
